From patent US6348478B1, “Biphenylamidine derivatives” (Teijin Limited, priority 1997, dated 2002) come the findings set out here.

The target of one assay is human FXa (Homo sapiens, UniProt P00742). Description: Measurement of activated blood coagulation factor X (FXa)-inhibiting action. Type of assay: biochemical. To be noted: substrate S-2765, 30 minutes incubation, A405, read-out: FXa inhibition activity (IC50). As to the method: Measurement of activated blood coagulation factor X (FXa)-inhibiting action
(§1) A specimen was dissolved in water or in water containing an organic solvent (DSMO, ethanol or methanol) in a proper concentration to prepare a specimen. 70 μl of the specimen stepwisely diluted with water was mixed with 90 μl of a 100 mM Tris buffer solution (pH 8.4), 20 μl of a 50 mM Tris buffer solution (pH 8.4) of 50 mU/ml human FXa, and a 2 mM substrate (Daiichikagaku. S-2765), incubated for 30 minutes, mixed with 50 μl of 50% acetic acid, and then subjected to the measurement of absorbance (A405). A blank was prepared by adding the Tris buffer solution instead of the FXa, and a control was prepared by adding water instead of the specimen. A 50% inhibition activity (IC50) was determined, and used as the index of the FXa-inhibiting action.

Another assay deals with T1, human thrombin (Homo sapiens, UniProt P00734).
T1 construct: 1U/ml human thrombin
Description: Measurement of thrombin inhibition action. The assay is classed as biochemical. To be noted: substrate S-2238, 30 minutes incubation, A405. How it is done:
Measurement of thrombin inhibition action
as §1, with “70” for “A specimen was dissolved in water or in water containing an organic solvent (DSMO, ethanol or methanol) in a proper concentration to prepare a specimen. 70”, “1U/ml” for “50 mU/ml”, “thrombin,” for “FXa,”, “S-2238),” for “S-2765),”, “thrombin inhibition” for “FXa-inhibiting”

Where “and” joins values, the source holds several entries; their conditions need not be identical. Identical values can stand only once. Bounds are passed on as bounds.

Chain of human FXa (P00742 235-488 limits assumed): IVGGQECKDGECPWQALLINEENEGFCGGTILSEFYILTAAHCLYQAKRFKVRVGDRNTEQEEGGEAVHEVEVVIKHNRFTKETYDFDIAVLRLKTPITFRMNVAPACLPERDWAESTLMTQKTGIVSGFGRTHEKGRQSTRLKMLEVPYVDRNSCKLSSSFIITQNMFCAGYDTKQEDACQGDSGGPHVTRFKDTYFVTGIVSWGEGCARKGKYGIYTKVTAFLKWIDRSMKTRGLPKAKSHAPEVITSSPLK
Chain of human FXa (P00742 41-179 partner limits assumed): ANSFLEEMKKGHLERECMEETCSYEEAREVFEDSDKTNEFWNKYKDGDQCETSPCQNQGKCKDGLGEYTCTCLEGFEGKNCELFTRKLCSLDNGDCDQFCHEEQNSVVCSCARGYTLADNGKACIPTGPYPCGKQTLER

`COC(=O)c1cc(COc2ccc(C(C)C)cc2)cc(-c2cccc(C(=N)N)c2)c1` [Example 3]: the IC50 at human FXa is 1 to 10 µM.

As for `CC(C)c1ccc(OCc2cc(C(=O)O)cc(-c3cccc(C(=N)N)c3)c2)cc1` [Example 4], the concentration for half-maximal inhibition (IC50) on human FXa fell in the range of 1 to 10 µM.

With `COC(=O)c1cc(COc2cccc(CN)c2)cc(-c2cccc(C(=N)N)c2)c1` [Example 5], the concentration for half-maximal inhibition (IC50) on human FXa was 1 to 10 µM; against human thrombin it was more than 100 µM.

On to `N=C(N)c1cccc(-c2cc(COc3cccc(CN)c3)cc(C(=O)O)c2)c1` [Example 6], for which the IC50 on human FXa is 1 to 10 µM; against human thrombin, more than 100 µM.

For the molecule `COC(=O)c1cc(COc2cccc(CCN)c2)cc(-c2cccc(C(=N)N)c2)c1` [Example 9], the half-maximal inhibitory concentration (IC50) at human FXa is 1 to 10 µM; against human thrombin, more than 100 µM.

Turning to `N=C(N)c1cccc(-c2cc(COc3cccc(CCN)c3)cc(C(=O)O)c2)c1` [Example 10], the IC50 is 1 to 10 µM at human FXa and more than 100 µM on human thrombin.

Regarding `COC(=O)c1cc(COc2cccnc2N)cc(-c2cccc(C(=N)N)c2)c1` [Example 11], the concentration for half-maximal inhibition (IC50) on human FXa is 10 to 100 µM; against human thrombin, more than 100 µM.

Turning to `COC(=O)c1cc(COc2ccc(C)cc2N)cc(-c2cccc(C(=N)N)c2)c1` [Example 12], the IC50 is 1 to 10 µM on human FXa and more than 100 µM against human thrombin.

On human thrombin, `COC(=O)c1cc(COc2cccc(N)c2)cc(-c2cccc(C(=N)N)c2)c1` [Example 13] returned an IC50 of more than 100 µM.

With `COC(=O)c1cc(COc2cccc(CO)c2)cc(-c2cccc(C(=N)N)c2)c1` [Example 15], the half-inhibitory concentration (IC50) on human FXa is 1 to 10 µM and 10 to 100 µM.

Regarding `CNc1ccc(OCc2cc(C(=O)OC)cc(-c3cccc(C(=N)N)c3)c2)cc1` [Example 16], the IC50 at human thrombin lay within 10 to 100 µM.

Consider `COC(=O)c1cc(COc2ccc3c(c2)CNC3)cc(-c2cccc(C(=N)N)c2)c1` [Example 18], for which, at human FXa, the concentration for half-maximal inhibition (IC50) was 0.1 to 1 µM.

Turning to `COC(=O)c1cc(COc2ccc3c(c2)CN(C(C)=N)C3)cc(-c2cccc(C(=N)N)c2)c1` [Example 19], the results for the IC50 on human FXa and against human thrombin were 0.1 to 1 µM and 10 to 100 µM, respectively.

For the molecule `COC(=O)c1cc(-c2cccc(C(=N)N)c2)ccc1COc1cccc(CN)c1` [Example 20], the IC50 at human FXa is 10 to 100 µM; against human thrombin it was more than 100 µM.

As for `COC(=O)c1cc(COCc2ccccc2)cc(-c2cccc(C(=N)N)c2)c1` [Example 23], at human FXa, the IC50 was 1 to 10 µM.

For orientation: IC50 means the midpoint of a concentration-inhibition curve.
